Values quoted from earlier work in patent US9222055B2, “High intensity fragrances” (TAKASAGO INTERNATIONAL CORPORATION, priority 2009, dated 2015).
Like-named read-outs stand apart in the source and are kept apart here.

How the values were obtained:
[1] = Table 1, measured value where available
[2] = for Readily biodegradable: Table 1
[3] = evidence from prior art
[4] = Table 19, ingredients of Comparative Fragrance K
[5] = Table 18, ingredients of Comparative Fragrance J

## CC1=CCC(O)(C(C)C)CC1 (stereo not shown) [1-terpinen-4-ol]
[1]
  LogP: 3.26
[2]
  Readily biodegradable: No

## CC(C)CC1CC(C)(O)CCO1 (stereo not shown) [2-isobutyl-4-methyltetrahydro-2H-pyran-4-ol]
[2]; [4]
  Bio-Degradable: No

## C=CCOC(=O)CCCCC [ALLYL HEXANOATE, allyl hexanoate]
[2]
  Readily biodegradable: Yes

## COc1ccc(C=O)cc1 [ANISIC ALDEHYDE, anisic aldehyde]
[2]
  Readily biodegradable: Yes

## CC(=O)/C=C/C1C(C)=CCCC1(C)C (stereo not drawn) [Alpha ionone]
[2]; [4]
  Bio-Degradable: No

## CCCCC/C(C=O)=C/c1ccccc1 [Amyl cinnamic aldehyde]
[3]
  allergen classification: strong allergens

## CC(=O)OCc1ccccc1 [BENZYL ACETATE, benzyl acetate]
[2]; OECD 301B or OECD 301F, Test Plan for Benzyl Derivatives
  biodegradability classification: readily biodegradable
[2]
  Readily biodegradable: Yes
[2]; [4]
  Bio-Degradable: Yes

## OCc1ccccc1 [BENZYL ALCOHOL, benzyl alcohol]
[2]
  Readily biodegradable: Yes

## CCCCOC(C)=O [BUTYL ACETATE, butyl acetate]
[1]
  LogP: 1.78
[2]
  Readily biodegradable: Yes

## O=C(OCc1ccccc1)c1ccccc1O [Benzyl Salicylate]
[2]; [5]
  Bio-Degradable: No

## OC/C=C/c1ccccc1 [CINNAMIC ALCOHOL, cinnamic alcohol]
[3]
  allergen classification: strong allergens
[1]
  LogP: 1.95
[2]
  Readily biodegradable: Yes

## O=C/C=C/c1ccccc1 [CINNAMIC ALDEHYDE, cinnamic aldehyde]
[3]
  allergen classification: strong allergens
[2]
  Readily biodegradable: Yes

## CC/C=C\CCOC(C)=O [CIS-3-HEXENYL ACETATE, cis-3-hexenyl acetate]
[1]
  LogP: 2.34
[2]
  Readily biodegradable: Yes

## CC/C=C\CCOC(=O)CC [CIS-3-HEXENYL PROPIONATE, cis-3-hexenyl propionate]
[2]
  Readily biodegradable: Yes

## CC(C)=CCCC(C)=CC=O [CITRAL, citral]
[3]
  allergen classification: strong allergens
[2]; OECD 301B, The Terpene Consortium Robust Summary
  biodegradability classification: readily biodegradable
[2]
  Readily biodegradable: Yes

## CC(C)=CCCC(C)CCO (stereo not shown) [CITRONELLOL, citronellol]
[2]; OECD 301F, The Terpene Consortium Robust Summary
  biodegradability classification: readily biodegradable
[2]
  Readily biodegradable: Yes

## COc1ccc(C)cc1 [Cresyl methyl ether]
[2]; [4]
  Bio-Degradable: Yes

## CCCCCCC1CCC(=O)O1 (stereo not shown) [DECALACTONE GAMMA, decalactone gamma]
[1]
  LogP: 2.72
[2]
  Readily biodegradable: Yes

## CCCc1ccc(O)c(OC)c1 [Dihydroeugenol]
[2]; [4]
  Bio-Degradable: No

## CCCC(=O)OC(C)(C)Cc1ccccc1 [Dimethyl benzyl carbonyl butyrate]
[2]; [5]
  Bio-Degradable: No

## CCCCCCCCCCCC=O [Dodecanal]
[2]; [4]
  Bio-Degradable: Yes

## CCCC(=O)OCC [ETHYL BUTYRATE, ethyl butyrate]
[1]
  LogP: 1.73
[2]
  Readily biodegradable: Yes

## CCCCCC(=O)OCC [ETHYL CAPROATE, ethyl caproate]
[2]
  Readily biodegradable: Yes

## CCCCCCCC(=O)OCC [ETHYL CAPRYLATE, ethyl caprylate]
[2]
  Readily biodegradable: Yes

## CCCCCCC(=O)OCC [ETHYL HEPTANOTE, ethyl heptanoate]
[2]
  Readily biodegradable: Yes

## CCOC(=O)CC [ETHYL PROPIONATE, ethyl propionate]
[1]
  LogP: 1.21
[2]
  Readily biodegradable: Yes

## CCOC(=O)CC(C)=O [Ethyl acetoaceteate]
[2]; [4]
  Bio-Degradable: Yes

## CCOC(=O)C12CCCC1C1CCC2C1 (stereo not shown) [Ethyl tricyclodecan-2-carboxylate]
[2]; [5]
  Bio-Degradable: No

## O=C1CCCCCCCCCCCC(=O)OCCO1 [Ethylene brassylate]
[2]; [5]
  Bio-Degradable: Yes
[2]; [4]
  Bio-Degradable: Yes

## CC(=O)/C(C)=C/C1C(C)=CCCC1(C)C (stereo not shown) [Gamma methyl ionone]
[2]; [4]
  Bio-Degradable: No

## O=Cc1ccc2c(c1)OCO2 [HELIOTROPINE, heliotropine]
[1]
  LogP: 1.05

## CCCCCCOC(C)=O [HEXYL ACETATE, hexyl acetate]
[2]
  Readily biodegradable: Yes

## CCCCCCC(C=O)=Cc1ccccc1 [Hexyl Cinnamic Aldehyde]
[2]; [5]
  Bio-Degradable: Yes

## CCCCCCOC(=O)c1ccccc1O [Hexyl salicylate]
[2]; [4]
  Bio-Degradable: Yes

## CC(=O)OCCC(C)C [ISOAMYL ACETATE, isoamyl acetate]
[1]
  LogP: 2.25
[2]
  Readily biodegradable: Yes

## CC(C)[C@@H]1CC[C@@H](C)C[C@H]1O [L-MENTHOL, L-menthol]
[2]
  Readily biodegradable: No

## C=C(C)[C@H]1CC=C(C)CC1 [LIMONENE, limonene]
[1]
  LogP: 4.57
[2]
  Readily biodegradable: No

## C=CC(C)(O)CCC=C(C)C (stereo not shown) [LINALOOL, linalool]
[2]
  Readily biodegradable: No
[2]; [5]
  Bio-Degradable: No
[2]; [4]
  Bio-Degradable: No

## C=CC(C)(CCC=C(C)C)OC(C)=O (stereo not shown) [Linalyl acetate]
[2]; [4]
  Bio-Degradable: No

## COC(=O)c1ccccc1N [METHYL ANTHRANILATE, methyl anthranilate]
[2]
  Readily biodegradable: Med

## COC(=O)c1ccccc1O [METHYL SALICYLATE, methyl salicylate]
[2]
  Readily biodegradable: Yes

## CCCCCC1C(=O)CCC1CC(=O)OC (stereo not shown) [Methyldihydrojasmonate]
[2]; [4]
  Bio-Degradable: Yes

## CCCCC1CCC(=O)O1 (stereo not shown) [OCTALACTONE, GAMMA, octalactone gamma]
[2]
  Readily biodegradable: Yes

## CC(=O)OCCc1ccccc1 [PHENYLETHYL ACETATE, 2-phenylethyl acetate]
[1]
  LogP: 2.30
[2]
  Readily biodegradable: Yes

## OCCc1ccccc1 [PHENYLETHYL ALCOHOL, 2-phenylethylalcohol]
[2]
  Readily biodegradable: Yes
[2]; [4]
  Bio-Degradable: Yes

## CC(C=O)Cc1ccc(C(C)(C)C)cc1 (stereo not drawn) [Para tert-butyl-alpha Methyl hydrocinnamic Aldehyde]
[3]
  allergen classification: strong allergens
[2]; [5]
  Bio-Degradable: No

## CC1=CCC(C(C)(C)O)CC1 (stereo not drawn) [TERPINEOL, ALPHA, alpha-terpineol]
[1]
  LogP: 2.98
[2]
  Readily biodegradable: No

## CCC/C=C/C=O [TRANS-2-HEXENAL, trans-2-hexenal]
[2]
  Readily biodegradable: Yes

## CCCCCC1COCCC1OC(C)=O (stereo not shown) [Tetrahydro-3-penthyl-2H-pyran-4-yl acetate]
[2]; [5]
  Bio-Degradable: Yes

## C=CCCCCCCCCC=O [Undecelenic aldehyde]
[2]; [4]
  Bio-Degradable: Yes

## COc1cc(C=O)ccc1O [VANILLIN, vanillin]
[2]
  Readily biodegradable: Yes
[2]; [4]
  Bio-Degradable: Yes

## Cc1occc(=O)c1O [VELTOL ™, 3-hydroxy-2-methyl-4-pyrone]
[2]
  Readily biodegradable: Yes

## CC(C)=CCCC(C)=CCCC(C)=CCO [farnesol]
[3]
  allergen classification: strong allergens

## CC=Cc1ccc(O)c(OC)c1 [isoeugenol]
[3]
  allergen classification: strong allergens

## CCCCCOC(C)=O [n-AMYL ACETATE, n-amyl acetate]
[1]
  LogP: 2.30
[2]
  Readily biodegradable: Yes

## CCCCCOC(=O)CC [n-AMYL PROPIONATE, n-amyl propionate]
[1]
  LogP: 2.66
[2]
  Readily biodegradable: Yes
